Here are results for 1 molecule from US20040220164A1, “Triaza compound immunoregulatory agents” (priority 2001, published 2004).

Where two headings read alike, the source gives them in different places.

Experiment [1] has as its system CCR5. The experiment is described as follows: Cell surface expression of HIV coreceptor. Format: cell-based, human. To be noted: incubation of the cells with CADA for 4 days. As to the method: (§1) Expression of various other surface antigens was also examined in MT-4 cells, SupT1 cells and PBMCs after incubation with CADA (16 μM) or CADA-free medium at 37° C. for 4 days. After washing with phosphate-buffered saline (PBS) containing 2% FCS(fetal calf serum), the cells were incubated with mAb (as indicated in Table 1) for 20 min at 4° C. Then the cells were washed, fixed with 1% formaldehyde and analyzed by flow cytometry. All mAbs were purchased from Becton-Dickinson (Erembodegem, Belgium).

In experiment [2] the test system is CXCR4. The experiment in a line: Cell surface expression of HIV coreceptor. Format: cell-based, human. To be noted: incubation of the cells with CADA for 4 days. As to the method: as §1
For experiment [3], the system named is HHV-7 (KHR strain). The experiment in a line: Anti-HHV-7 assay (HHV-7 antigen expression, flow cytometry, day 12). The class given is cell-based. How it is done: (§2) The antiviral activity of CADA against HIV-1 and RHV-7 was investigated. PBMCs and […] cell-depleted PBMCs (removed with CD8 magnetic beads; Dynal AS, Oslo, Norway), previously activated with purified PHA (2 μg/ml) and rhIL-2 (1 ng/ml) for 3 days, were pelleted and exposed to HIV-1 (1 ng p24 Ag per 10^6 cells) for 2 hours at 370C. Then the cells were washed three times with warm medium and cultured in complete medium containing rhIL-2 (1 ng/ml) in the presence or absence of different concentrations of CADA hydrochloride. The anti-HIV-1 assays were also performed in MT-4 and SupT1 cells. CADA hydrochloride was diluted in the plates, then the MT-4 cells or SupT1 cells were added and finally the T-tropic HIV-1 strains. The supernatant was collected at day 5 for MT-4 cells, day 8 for SupT1 cells and day 12 for PBMCs, and stored at −20° C. and analyzed for HIV-1 core antigen by p24 Ag ELISA (NEN, Brussels, Belgium). The SupT1 cells were refreshed on day 4, and half of the medium and cells were replaced and fresh CADA-free medium was added. For the PBMCs, fresh culture medium was added at day 6 containing rhIL-2 (but no CADA). For the anti-HHV-7 assays in PBMCs, CADA hydrochloride was diluted in a plate, 2×10˜cells were added and then HHV-7 (KHR strain) was added in complete medium containing rhIL-2 (1 ng/ml). Fresh culture medium was added again at day 6 containing rhIL-2 (but no CADA). The same infection protocol was used for the SupT1 cells, but without rhIL-2. The SupT1 cells were refreshed on day 4 and day 8, half of the medium and the cells were replaced, and fresh medium without CADA was added. The HHV-7 antigen expression was monitored (at day 12) with a specific mAb to HHV-7 (RK-4) (Advanced Biotechnologies, Columbia, Md.) by flow cytometry, as described previously (Thang, Y., et al., Antiviral Res. 43:23-35 (1999)).
For orientation: In flow cytometry, cells or beads pass a laser one at a time.

For experiment [4], the system named is CCR5-using (R5) HIV-1 strain BaL. The experiment is described as follows: Anti-HIV-1 assay (p24 Ag ELISA). Format: cell-based. To be noted: Human immunodeficiency virus 1, BAL, PBMC; read-out: IC50 against HIV-1 BaL. As to the method:
as §2
For orientation: In an ELISA, binding on a coated surface is turned into a signal by an enzyme label.

Experiment [5] concerns HIV-1 strain IIIB. The experiment in a line: Anti-HIV-1 assay (p24 Ag ELISA). The class given is cell-based. To be noted: Human immunodeficiency virus 1, IIIB, read-out: IC50 against HIV-1 IIIB. As to the method:
as §2

Experiment [6] addresses CD4 (Homo sapiens, UniProt P01730). The experiment in a line: Intracellular CD4 staining. The class given is cell-based. The arrangement: To study the effect of the CADA derivatives on surface CD4 antigen expression, MT-4 and SupT1 cells were incubated; endogenous in cells; host or cells: MT-4, SupT1, PBMC. To be noted: SupT1 cells, CADA 3.2 μM, 4 days; untreated 97.3%. As to the method:
FIGS. 3A-3B. Intracellular CD4 staining in SupT1 cells after incubation with CADA hydrochloride (3.2 μM) for 4 days. (A) The intracellular CD4 expression of SupT1 cells cultured in medium alone and (B) treated with CADA for 4 days.
The effect of CADA on the intracellular presence of CD4 was also investigated. […] Similar results were also obtained in MT-4 cells and in PBMCs, and with two other anti-CD4 mAbs (OKT4A and OKT4).

On to `C=C1CN(S(=O)(=O)c2ccc(C)cc2)CCCN(Cc2ccccc2)CCCN(S(=O)(=O)c2ccc(C)cc2)C1` [CADA], for which the “cell surface expression of CCR5” value in experiment [1] was “remained unchanged”. Also, in experiment [2], the “cell surface expression of CXCR4” value is “remained unchanged”. The IC50 in experiment [3] (PBMC, CD8+ depleted PBMC, read-out: IC50 against HHV-7) was 900 nM; in experiment [3] (PBMC, read-out: IC50 against HHV-7) it was 1500 nM; in experiment [3] (SUP-T1, SupT1 cells, PBMCs and CD8+ T-cell depleted PBMCs, read-out: inhibitory concentration (IC50) for HHV-7, range over cell types), 300 to 1500 nM; in experiment [3] (SUP-T1, SupT1 cells, read-out: IC50 against HHV-7), 300 nM; in experiment [4], 800 nM; in experiment [5] (MT4, MT-4 cells), 300 nM. The IC50 came to 600 nM in experiment [5] (PBMC) and 900 nM in experiment [5] (SUP-T1, SupT1 cells). Moreover, the “percentage of intracellular CD4 expression” value in experiment [6] was determined as 1.3%.
